One test has as its system Kuramochi cells. Briefly: Cellular Viability Assay (5 day Kuramochi cell viability, CellTiter-Glo). Type of test: cell-based. The settings on record: 5 days, 37 °C, growth inhibition relative to Day 0 (T0) and DMSO. As to the method:
Kuramochi cells were seeded at a density of 1000 cells per well in a 384-well, white, sterile, clear bottom plate, using a Multidrop liquid dispenser and incubated for 24 hours at 37 °C in a 5% CO2 humidified environment. 24 hours later, compounds were added starting at a top dose of 10 μM for a 9-point dose response curve at a 1:3 dilution using an iDOT HT liquid handler and incubated for 5 days at 37 °C in a 5% CO2 humidified environment. After 5 days and at Day 0, plates were incubated at room temperature for 30 minutes followed by the addition of 30 μl of CellTiter-Glo Reagent. Plates were then mixed for 10 minutes on an orbital shaker followed by incubation at room temperature for 20 minutes. Luminescence was then read using the Envision plate reader. Percent Growth Inhibition was then calculated using the following equation: Percent Growth Inhibition normalized=100−(compound signal−T0)/(max signal−T0)*100%, where Max Signal refers to the DMSO only treated cells and T0 refers to the Day0 viability measurement. Growth Inhibition 50 was then calculated using the following equation: Y=Bottom+(Top−Bottom)/(1+10^((Log IC50−X)*hillslope)).
For cell activity, bracket is denoted as: A<1 uM; 1 uM<B<5 uM; C>5 uM.

In test [1] the target is T1, N-his8-TEV-hPARG (389-976) (Homo sapiens, UniProt Q86W56).
T1 construct: N-his8-TEV-hPARG (389-976); His8 (N); TEV protease cleavage site (N); made in house; host or cells: E. coli BL21(DE3)
Briefly: PARG Biochemical Enzymatic Assay (PARG inhibition HTRF assay). The settings on record: 62.5 pM PARG, 5 nM Biotin-Parylated PARP1 substrate, 60 minutes preincubation, 10 minutes reaction at 23 °C. As to the method:
PARG Biochemical Enzymatic Assay
TEV-His8-PolyADP-Ribose Polymerase 1 (379-1014) (PARP1) and N-his8-TEV-hPARG (389-976) were used to transform BL21(DE3) competent cells followed by growth for 1 hour at 37 °C and plating on Kanamycin resistant agar plates. A single colony was then inoculated into 1 ml of Luria Broth and expansion into a 1 liter scale for growth at 37 °C for 3 hours. Expression was induced via 0.2 mM IPTG induction for 20 hours at 16 °C in BL21(DE3) E. coli. Purification was then performed using a Nickel column, size exclusion chromatography and HPLC analysis.
For substrate preparation, […] nicked DNA and 2 μM PARP1 protein were mixed for 10 minutes at 25 °C 10 μM biotin-NAD+ and 100 μM NAD+ were then added and incubated for 60 minutes at 30 °C to yield PARylated PARP1 substrate.
For compound screening, compounds were serially diluted to a 3× final concentration in assay buffer (Tris pH7.5 50 mM, KCl 50 mM, Tween-20 0.01%, BSA 0.1 mg/ml, EDTA 3 mM, EGTA 0.4 mM, DTT 1 mM) containing 1% DMSO. A top concentration of 1.5 μM for a 10-point dose response curve using a 1:3 dilution curve was used. 2.5×PARG (156.25 pM working concentration, 62.5 pM final concentration) was prepared in assay buffer and 4 ul added to a 384 well assay plate containing 2 μl of serially diluted compound. The plate was then centrifuged for 10 seconds and incubated for 60 minutes at 23 °C. 4 μl of 2.5× Biotin-Parylated PARP1 (12.5 nM working concentration, 5 nM final concentration) was then added to the plate and incubated for 10 minutes at 23 °C. 4 μl of […] Detection reagent containing 0.44 μg/ml of Streptavidin-Europium cryptate and 4 μg/ml of anti-6His-XL665 monoclonal antibody was added to the plate and incubated for 60 minutes at 23 °C. The Homogeneous Time Resolved Fluorescent (HTRF) signal was then measured on an Envision plate reader using and excitation wavelength of 337 nm and emission wavelengths of 615 nm and 665 nm. Normalized percent inhibition was then calculated using the following equation: % Inhibition normalized=(compound signal-min signal)/(max signal-min signal)*100%, where Maximum signal was substrate only wells and Minimum signal was enzyme and substrate well. IC50 was calculated by fitting % Inhibition values and log of compound concentrations to nonlinear regression (log(inhibitor) vs. response—Variable slope(four parameters)) with GraphPad 9.4.1
For biochemical activity, bracket is denoted as: A<100 nM; 100 nM<B<500 nM; C>500 nM

T1 sequence (Q86W56 389-976): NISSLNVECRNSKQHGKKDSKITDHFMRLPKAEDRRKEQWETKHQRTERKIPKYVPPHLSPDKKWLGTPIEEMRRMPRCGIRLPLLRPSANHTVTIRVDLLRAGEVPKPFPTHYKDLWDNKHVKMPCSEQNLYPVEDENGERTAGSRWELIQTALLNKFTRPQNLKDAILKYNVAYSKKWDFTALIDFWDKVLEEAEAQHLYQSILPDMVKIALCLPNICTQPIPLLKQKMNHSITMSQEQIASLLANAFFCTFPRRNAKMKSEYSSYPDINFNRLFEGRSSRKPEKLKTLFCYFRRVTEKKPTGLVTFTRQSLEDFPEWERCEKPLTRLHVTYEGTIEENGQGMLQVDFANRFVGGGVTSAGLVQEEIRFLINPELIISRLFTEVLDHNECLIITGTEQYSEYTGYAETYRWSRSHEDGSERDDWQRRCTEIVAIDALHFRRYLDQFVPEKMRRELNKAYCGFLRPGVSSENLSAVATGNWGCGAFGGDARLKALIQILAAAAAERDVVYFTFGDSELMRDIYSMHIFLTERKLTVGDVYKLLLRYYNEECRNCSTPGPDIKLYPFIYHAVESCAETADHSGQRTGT

`CC1(NS(=O)(=O)c2cc(N3CCC4(CC3)COC4)n3cnc(-c4nnc(C(F)F)s4)c3c2)CC1` [Example 34, 1-(5-(difluoromethyl)-1,3,4-thiadiazol-2-yl)-N-(1-methylcyclopropyl)-5-(2-oxa-7-azaspiro[3.5]nonan-7-yl)imidazo[1,5-a]pyridine-7-sulfonamide]: the IC50 in the test with Kuramochi cells is below 1000 nM; in test [1], below 100 nM.
Turning to `O=S(=O)(NC1(C(F)F)CC1)c1cc(N2CCC3(CC2)COC3)n2cnc(-c3nnc(C(F)F)s3)c2c1` [Example 35, 1-(5-(difluoromethyl)-1,3,4-thiadiazol-2-yl)-N-(1-(difluoromethyl)cyclopropyl)-5-(2-oxa-7-azaspiro[3.5]nonan-7-yl)imidazo[1,5-a]pyridine-7-sulfonamide], the figures for the half-inhibitory concentration (IC50) (in the test on Kuramochi cells; in test [1]) were below 1000 nM and below 100 nM, respectively.
With `N#CC1(NS(=O)(=O)c2cc(N3CCC4(CC3)COC4)n3cnc(-c4nnc(C(F)F)s4)c3c2)CC1` [Example 36, N-(1-cyanocyclopropyl)-1-(5-(difluoromethyl)-1,3,4-thiadiazol-2-yl)-5-(2-oxa-7-azaspiro[3.5]nonan-7-yl)imidazo[1,5-a]pyridine-7-sulfonamide], the IC50 is below 1000 nM with Kuramochi cells and below 100 nM in test [1].
As for `O=S(=O)(NC1(C(F)F)CC1)c1cc(N2CCC3(CC2)COC3)c2ncc(-c3nnc(C(F)F)s3)n2c1` [Example 37, 3-(5-(difluoromethyl)-1,3,4-thiadiazol-2-yl)-N-(1-(difluoromethyl)cyclopropyl)-8-(2-oxa-7-azaspiro[3.5]nonan-7-yl)imidazo[1,2-a]pyridine-6-sulfonamide], the results for the IC50 (in the test on Kuramochi cells; in test [1]) were below 1000 nM and below 100 nM, respectively.
Take `O=S(=O)(NC1(C(F)F)CC1)c1cc(N2CCC3(CC2)COC3)c2cnc(-c3nnc(C(F)F)s3)n2c1` [Example 39, 3-(5-(difluoromethyl)-1,3,4-thiadiazol-2-yl)-N-(1-(difluoromethyl)cyclopropyl)-8-(2-oxa-7-azaspiro[3.5]nonan-7-yl)imidazo[1,5-a]pyridine-6-sulfonamide]: the IC50 in the test on Kuramochi cells was below 1000 nM; in test [1], below 100 nM.
`O=S(=O)(NC1(C(F)F)CC1)c1cc(N2CCC3(CC2)COC3)c2nnc(-c3nnc(C(F)F)s3)n2c1` [Example 40, 3-(5-(Difluoromethyl)-1,3,4-thiadiazol-2-yl)-N-(1-(difluoromethyl)cyclopropyl)-8-(2-oxa-7-azaspiro[3.5]nonan-7-yl)-[1,2,4]triazolo[4,3-a]pyridine-6-sulfonamide]: the IC50 with Kuramochi cells was below 1000 nM; in test [1], below 100 nM.

The record behind these values is patent US20260356835A1, “BICYCLIC HETEROARYL COMPOUNDS” (QuantX Biosciences US, Inc., priority 2023, published 2026).
